# Laboratory results from publication PMC5931107, “Clinical pharmacodynamic/exposure characterisation of the multikinase inhibitor ilorasertib (ABT-348) in a phase 1 dose-escalation trial” (British Journal of Cancer, 2018).
# Experiments:
# [1] = Safety: treatment-emergent adverse events (CTCAE v4.0), phase 1 trial; assay type: in vivo, human
# Method: Safety was assessed on the basis of AEs, physical examination, vital signs, electrocardiograms, multiple-gated acquisition scans, and clinical laboratory test assessments. AEs were graded using National Cancer Institute CTCAE version 4.0.
# Descriptive statistics were used for demographic variables. The numbers and percentages of patients with treatment-emergent AEs (TEAEs) were tabulated using the Medical Dictionary for Regulatory Activities version 16.0 system organ class and preferred term, and further classified according to CTCAE version 4.0 criteria. The safety data set included all patients who received one or more doses of ilorasertib. The pharmacokinetic data set included all patients who received one or more doses of ilorasertib and had one or more pharmacokinetic samples. Values for pharmacokinetic parameters were determined using non-compartmental methods, with data analysed separately for each arm. A repeated measures analysis was performed for Tmax and dose-normalised Cmax, AUCt, and AUC∞. The model included random effects for patient and fixed effects for dose level, day, and the interaction of dose level and day. To assess effects of exposure on pharmacodynamic biomarkers, Cmax was employed as the directly measured marker of exposure for the rapid changes in DBP and PlGF pre-steady-state, while AUC∞ reflected exposure variability at the time of post-multiple-dose skin biopsy. Descriptive statistics were used to summarise ECOG performance status. The efficacy data set included all patients who received one or more doses of ilorasertib.
# [2] = test system: Aurora B; design: method as in PMID 22935731; conditions: phosphorylation of histone H3, read-out: Cellular PD marker IC50 (95% confidence limits); cited from earlier work
smiles,measurement,setting,value
"Nc1ncc(-c2cnn(CCO)c2)c2scc(-c3ccc(NC(=O)Nc4cccc(F)c4)cc3)c12 [ilorasertib, Ilorasertib]","Any grade AE, patients n (%)","[1]; Arm I PO QD, N = 23",22 (96)
same,"Constipation, any grade TEAE, patients n (%)","[1]; Arm I PO QD, N = 23",6 (26)
same,"Decreased appetite, any grade TEAE, patients n (%)","[1]; Arm I PO QD, N = 23",8 (35)
same,"Diarrhoea, any grade TEAE, patients n (%)","[1]; Arm I PO QD, N = 23",5 (22)
same,"Diarrhoea, grade 3 or 4 TEAE, patients n (%)","[1]; Arm I PO QD, N = 23",1 (4)
same,"Dyspnoea, any grade TEAE, patients n (%)","[1]; Arm I PO QD, N = 23",2 (9)
same,"Grade 3 or 4 AE, patients n (%)","[1]; Arm I PO QD, N = 23",14 (61)
same,"Headache, any grade TEAE, patients n (%)","[1]; Arm I PO QD, N = 23",5 (22)
same,"Hypertension, any grade TEAE, patients n (%)","[1]; Arm I PO QD, N = 23",8 (35)
same,"Hypertension, grade 3 or 4 TEAE, patients n (%)","[1]; Arm I PO QD, N = 23",4 (17)
same,"Hypokalaemia, any grade TEAE, patients n (%)","[1]; Arm I PO QD, N = 23",3 (13)
same,"Hypomagnesaemia, any grade TEAE, patients n (%)","[1]; Arm I PO QD, N = 23",3 (13)
same,"Nausea, any grade TEAE, patients n (%)","[1]; Arm I PO QD, N = 23",8 (35)
same,"Neutropenia, grade 3 or 4 TEAE, patients n (%)","[1]; Arm I PO QD, N = 23",0
same,"Thrombocytopenia, any grade TEAE, patients n (%)","[1]; Arm I PO QD, N = 23",3 (13)
same,"Urinary tract infection, any grade TEAE, patients n (%)","[1]; Arm I PO QD, N = 23",2 (9)
same,"Vomiting, any grade TEAE, patients n (%)","[1]; Arm I PO QD, N = 23",3 (13)
same,"Any grade AE, patients n (%)","[1]; Arm II PO BID, N = 28",27 (96)
same,"Constipation, any grade TEAE, patients n (%)","[1]; Arm II PO BID, N = 28",5 (18)
same,"Decreased appetite, any grade TEAE, patients n (%)","[1]; Arm II PO BID, N = 28",9 (32)
same,"Diarrhoea, any grade TEAE, patients n (%)","[1]; Arm II PO BID, N = 28",8 (29)
same,"Diarrhoea, grade 3 or 4 TEAE, patients n (%)","[1]; Arm II PO BID, N = 28",1 (4)
same,"Dyspnoea, any grade TEAE, patients n (%)","[1]; Arm II PO BID, N = 28",3 (11)
same,"Fatigue, any grade TEAE, patients n (%)","[1]; Arm II PO BID, N = 28",14 (50)
same,"Grade 3 or 4 AE, patients n (%)","[1]; Arm II PO BID, N = 28",15 (54)
same,"Headache, any grade TEAE, patients n (%)","[1]; Arm II PO BID, N = 28",4 (14)
same,"Hypertension, any grade TEAE, patients n (%)","[1]; Arm II PO BID, N = 28",9 (32)
same,"Hypertension, grade 3 or 4 TEAE, patients n (%)","[1]; Arm II PO BID, N = 28",4 (14)
same,"Hypokalaemia, any grade TEAE, patients n (%)","[1]; Arm II PO BID, N = 28",3 (11)
same,"Hypomagnesaemia, any grade TEAE, patients n (%)","[1]; Arm II PO BID, N = 28",3 (11)
same,"Nausea, any grade TEAE, patients n (%)","[1]; Arm II PO BID, N = 28",5 (18)
same,"Neutropenia, grade 3 or 4 TEAE, patients n (%)","[1]; Arm II PO BID, N = 28",2 (7)
same,"Thrombocytopenia, any grade TEAE, patients n (%)","[1]; Arm II PO BID, N = 28",5 (18)
same,"Urinary tract infection, any grade TEAE, patients n (%)","[1]; Arm II PO BID, N = 28",5 (18)
same,"Vomiting, any grade TEAE, patients n (%)","[1]; Arm II PO BID, N = 28",8 (29)
same,"Any grade AE, patients n (%)","[1]; Arm III i.v., N = 7",7 (100)
same,"Constipation, any grade TEAE, patients n (%)","[1]; Arm III i.v., N = 7",2 (29)
same,"Decreased appetite, any grade TEAE, patients n (%)","[1]; Arm III i.v., N = 7",3 (43)
same,"Diarrhoea, any grade TEAE, patients n (%)","[1]; Arm III i.v., N = 7",2 (29)
same,"Diarrhoea, grade 3 or 4 TEAE, patients n (%)","[1]; Arm III i.v., N = 7",0
same,"Dyspnoea, any grade TEAE, patients n (%)","[1]; Arm III i.v., N = 7",2 (29)
same,"Fatigue, any grade TEAE, patients n (%)","[1]; Arm III i.v., N = 7",1 (14)
same,"Grade 3 or 4 AE, patients n (%)","[1]; Arm III i.v., N = 7",3 (43)
same,"Headache, any grade TEAE, patients n (%)","[1]; Arm III i.v., N = 7",0
same,"Hypertension, any grade TEAE, patients n (%)","[1]; Arm III i.v., N = 7",3 (43)
same,"Hypertension, grade 3 or 4 TEAE, patients n (%)","[1]; Arm III i.v., N = 7",2 (29)
same,"Hypokalaemia, any grade TEAE, patients n (%)","[1]; Arm III i.v., N = 7",0
same,"Hypomagnesaemia, any grade TEAE, patients n (%)","[1]; Arm III i.v., N = 7",0
same,"Nausea, any grade TEAE, patients n (%)","[1]; Arm III i.v., N = 7",2 (29)
same,"Neutropenia, grade 3 or 4 TEAE, patients n (%)","[1]; Arm III i.v., N = 7",0
same,"Thrombocytopenia, any grade TEAE, patients n (%)","[1]; Arm III i.v., N = 7",0
same,"Urinary tract infection, any grade TEAE, patients n (%)","[1]; Arm III i.v., N = 7",2 (29)
same,"Vomiting, any grade TEAE, patients n (%)","[1]; Arm III i.v., N = 7",1 (14)
same,"Any grade AE, patients n (%)","[1]; Total, N = 58",56 (97)
same,"Decreased appetite, any grade TEAE, patients n (%)","[1]; Total, N = 58",20 (34)
same,"Diarrhoea, any grade TEAE, patients n (%)","[1]; Total, N = 58",15 (26)
same,"Diarrhoea, grade 3 or 4 TEAE, patients n (%)","[1]; Total, N = 58",2 (3)
same,"Dyspnoea, any grade TEAE, patients n (%)","[1]; Total, N = 58",7 (12)
same,"Fatigue, any grade TEAE, patients n (%)","[1]; Total, N = 58",28 (48)
same,"Grade 3 or 4 AE, patients n (%)","[1]; Total, N = 58",32 (55)
same,"Headache, any grade TEAE, patients n (%)","[1]; Total, N = 58",9 (16)
same,"Hypertension, any grade TEAE, patients n (%)","[1]; Total, N = 58",20 (34)
same,"Hypertension, grade 3 or 4 TEAE, patients n (%)","[1]; Total, N = 58",10 (17)
same,"Hypokalaemia, any grade TEAE, patients n (%)","[1]; Total, N = 58",6 (10)
same,"Hypomagnesaemia, any grade TEAE, patients n (%)","[1]; Total, N = 58",6 (10)
same,"Nausea, any grade TEAE, patients n (%)","[1]; Total, N = 58",15 (26)
same,"Neutropenia, grade 3 or 4 TEAE, patients n (%)","[1]; Total, N = 58",2 (3)
same,"Thrombocytopenia, any grade TEAE, patients n (%)","[1]; Total, N = 58",8 (14)
same,"Urinary tract infection, any grade TEAE, patients n (%)","[1]; Total, N = 58",9 (16)
same,"Grade 3 or 4 TEAE diarrhoea, patients",[1]; all 58 patients,3%
same,"Grade 3 or 4 TEAE hypertension, patients",[1]; all 58 patients,17%
same,"Grade 3 or 4 TEAE neutropenia, patients",[1]; all 58 patients,3%
same,Patients with TEAEs,[1]; all 58 patients,97%
same,Patients with TEAEs considered possibly or probably related to ilorasertib,[1]; all 58 patients,66%
same,Patients with TEAEs that led to discontinuation,[1]; all 58 patients,17%
same,Patients with grade 3 or 4 TEAEs,[1]; all 58 patients,55%
same,Patients with treatment-emergent serious AEs,[1]; all 58 patients,36%
same,Patients with treatment-related grade 3 or 4 TEAEs,[1]; all 58 patients,28%
same,"Serious AE fatigue, patients",[1]; all 58 patients,3%
same,"Serious AE small intestinal obstruction, patients",[1]; all 58 patients,7%
same,"TEAE constipation, patients",[1]; all 58 patients,22%
same,"TEAE decreased appetite (anorexia), patients",[1]; all 58 patients,34%
same,"TEAE diarrhoea, patients",[1]; all 58 patients,26%
same,"TEAE fatigue, patients",[1]; all 58 patients,48%
same,"TEAE hypertension, patients",[1]; all 58 patients,34%
same,"TEAE nausea, patients",[1]; all 58 patients,26%
same,"Treatment-related TEAE decreased appetite, patients",[1]; all 58 patients,19%
same,"Treatment-related TEAE diarrhoea, patients",[1]; all 58 patients,14%
same,"Treatment-related TEAE fatigue, patients",[1]; all 58 patients,24%
same,"Treatment-related TEAE hypertension, patients",[1]; all 58 patients,29%
same,"Treatment-related TEAE nausea, patients",[1]; all 58 patients,17%
same,"Treatment-related TEAE thrombocytopenia, patients",[1]; all 58 patients,14%
same,"Treatment-related TEAE vomiting, patients",[1]; all 58 patients,10%
same,"Treatment-related grade 3 or 4 diarrhoea, patients",[1]; all 58 patients,3%
same,"Treatment-related grade 3 or 4 hypertension, patients",[1]; all 58 patients,14%
same,"Treatment-related grade 3 or 4 neutropenia, patients",[1]; all 58 patients,3%
same,Relatedness of deaths to ilorasertib (investigator),[1]; in vivo,none of the deaths were considered related to ilorasertib
same,Deaths resulting from TEAEs,"[1]; one patient in Arm I, two in Arm II, within 30 days of discontinuing the study",three patients
